molecular target: ATR kinase (full-length ATR) (Homo sapiens (Human), UniProt Q13535); test: ATR inhibition assay (radioactive-phosphate incorporation); type: biochemical; conditions: not given
Outline: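 Radiometric 33P incorporation by 5 nM full-length ATR into 800 μM target peptide with 10 μM [γ-33P]ATP, in 50 mM Tris/HCl pH 7.5, 10 mM MgCl2, 1 mM DTT, 7% DMSO, 25° C. Compound pre-incubated 10 minutes; reaction stopped after 24 hours, captured on phosphocellulose. Ki(app) from non-linear regression of initial rates.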

Sequence of ATR kinase (full-length ATR) (Q13535 whole entry): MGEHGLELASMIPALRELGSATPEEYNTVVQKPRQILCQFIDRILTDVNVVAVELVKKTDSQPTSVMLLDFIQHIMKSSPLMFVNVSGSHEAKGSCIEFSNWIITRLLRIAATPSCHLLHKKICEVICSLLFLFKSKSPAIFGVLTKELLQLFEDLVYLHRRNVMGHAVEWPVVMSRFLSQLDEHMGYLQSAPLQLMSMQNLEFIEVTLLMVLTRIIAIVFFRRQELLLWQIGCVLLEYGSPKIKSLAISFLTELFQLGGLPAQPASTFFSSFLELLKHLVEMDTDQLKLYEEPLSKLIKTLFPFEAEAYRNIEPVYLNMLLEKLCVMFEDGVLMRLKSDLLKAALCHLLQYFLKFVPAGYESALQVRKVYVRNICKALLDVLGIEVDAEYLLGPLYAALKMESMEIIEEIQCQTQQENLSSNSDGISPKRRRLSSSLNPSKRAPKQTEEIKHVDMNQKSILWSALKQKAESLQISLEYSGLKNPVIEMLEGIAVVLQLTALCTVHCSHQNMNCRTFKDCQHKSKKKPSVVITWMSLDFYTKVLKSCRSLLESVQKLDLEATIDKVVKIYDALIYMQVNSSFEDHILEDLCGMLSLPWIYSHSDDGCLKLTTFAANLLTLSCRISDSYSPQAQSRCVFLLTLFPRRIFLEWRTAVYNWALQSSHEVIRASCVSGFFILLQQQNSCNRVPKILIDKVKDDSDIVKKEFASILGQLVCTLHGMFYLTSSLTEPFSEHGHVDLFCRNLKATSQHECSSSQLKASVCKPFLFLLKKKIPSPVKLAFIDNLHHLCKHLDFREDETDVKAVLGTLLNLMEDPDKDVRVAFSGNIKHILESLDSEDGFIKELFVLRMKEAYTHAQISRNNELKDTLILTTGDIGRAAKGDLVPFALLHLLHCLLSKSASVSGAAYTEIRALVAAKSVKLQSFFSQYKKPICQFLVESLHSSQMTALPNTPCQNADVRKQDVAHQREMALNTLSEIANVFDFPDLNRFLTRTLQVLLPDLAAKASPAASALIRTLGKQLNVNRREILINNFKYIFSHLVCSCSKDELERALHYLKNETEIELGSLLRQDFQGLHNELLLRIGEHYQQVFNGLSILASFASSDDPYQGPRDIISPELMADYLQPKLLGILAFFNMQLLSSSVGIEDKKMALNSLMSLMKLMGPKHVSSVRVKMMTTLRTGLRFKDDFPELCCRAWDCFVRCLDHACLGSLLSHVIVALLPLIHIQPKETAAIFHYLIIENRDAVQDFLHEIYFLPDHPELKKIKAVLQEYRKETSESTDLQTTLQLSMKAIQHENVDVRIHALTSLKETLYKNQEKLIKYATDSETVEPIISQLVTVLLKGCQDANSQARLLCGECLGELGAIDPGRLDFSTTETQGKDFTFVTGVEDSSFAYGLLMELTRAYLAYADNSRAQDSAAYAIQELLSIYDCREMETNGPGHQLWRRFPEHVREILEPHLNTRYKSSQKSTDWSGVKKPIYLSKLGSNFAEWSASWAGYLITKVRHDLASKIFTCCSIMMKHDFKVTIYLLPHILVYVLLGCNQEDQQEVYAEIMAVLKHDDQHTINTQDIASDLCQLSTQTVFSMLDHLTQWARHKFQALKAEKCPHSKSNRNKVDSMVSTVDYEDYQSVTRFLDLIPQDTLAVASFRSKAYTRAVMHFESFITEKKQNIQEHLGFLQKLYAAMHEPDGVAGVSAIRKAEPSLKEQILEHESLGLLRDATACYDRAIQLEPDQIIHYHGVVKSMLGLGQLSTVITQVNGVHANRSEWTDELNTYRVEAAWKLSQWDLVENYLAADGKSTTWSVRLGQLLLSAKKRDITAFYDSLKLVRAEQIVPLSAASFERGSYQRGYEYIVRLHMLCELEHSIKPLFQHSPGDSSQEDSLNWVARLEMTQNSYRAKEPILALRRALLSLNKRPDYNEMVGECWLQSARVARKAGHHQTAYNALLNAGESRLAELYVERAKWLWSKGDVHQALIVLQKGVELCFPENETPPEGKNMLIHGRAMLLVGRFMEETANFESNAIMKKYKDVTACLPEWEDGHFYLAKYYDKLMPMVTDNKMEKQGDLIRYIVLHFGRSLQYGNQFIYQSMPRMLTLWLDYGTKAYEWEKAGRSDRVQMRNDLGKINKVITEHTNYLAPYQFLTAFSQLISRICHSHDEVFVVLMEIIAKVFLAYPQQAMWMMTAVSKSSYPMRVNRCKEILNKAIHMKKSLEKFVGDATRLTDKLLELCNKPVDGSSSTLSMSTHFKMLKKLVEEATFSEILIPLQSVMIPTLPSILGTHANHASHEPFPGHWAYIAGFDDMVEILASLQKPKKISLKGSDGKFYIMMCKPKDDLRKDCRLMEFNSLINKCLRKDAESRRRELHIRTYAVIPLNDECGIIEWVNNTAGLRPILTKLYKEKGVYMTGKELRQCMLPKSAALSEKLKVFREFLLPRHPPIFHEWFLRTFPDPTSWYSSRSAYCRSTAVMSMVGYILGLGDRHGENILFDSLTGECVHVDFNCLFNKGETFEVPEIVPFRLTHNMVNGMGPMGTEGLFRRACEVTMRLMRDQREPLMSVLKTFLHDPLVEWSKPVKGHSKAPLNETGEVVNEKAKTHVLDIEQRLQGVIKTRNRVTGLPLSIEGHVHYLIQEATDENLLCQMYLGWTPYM

| Compound | Ki |
| --- | --- |
| CN1CCN(C(=O)C2CCN(c3c(F)cncc3NC(=O)c3c(N)nn4cc(F)cnc34)C2)CC1 (stereo not shown) [I-N-191, 2-amino-6-fluoro-N-(5-fluoro-4-(3-(4-methylpiperazine-1-carbonyl)pyrrolidin-1-yl)pyridin-3-yl)pyrazolo[1,5-a]pyrimidine-3-carboxamide] | 1 to 5 µM |
| CN1CC[C@@H](OC2CCN(c3c(F)cncc3NC(=O)c3c(N)nn4cc(F)cnc34)CC2)C1 [I-N-132, (R)-2-amino-6-fluoro-N-(5-fluoro-4-(4-((1-methylpyrrolidin-3-yl)oxy)piperidin-1-yl)pyridin-3-yl)pyrazolo[1,5-a]pyrimidine-3-carboxamide] | 0.01 to 1 µM |
| CN(C)CCCOc1ccncc1NC(=O)c1c(N)nn2cc(Cl)cnc12 [I-O-52, 2-amino-6-chloro-N-(4-(3-(dimethylamino)propoxy)pyridin-3-yl)pyrazolo[1,5-a]pyrimidine-3-carboxamide] | 1 to 5 µM |

same assay, conditions: Ki(app), 5 nM full-length ATR, 10 μM ATP, 25° C.

| Compound | Ki |
| --- | --- |
| Nc1nn2cc(F)cnc2c1C(=O)Nc1cncc(F)c1N1CCN(C(=O)CN2CCCC2)CC1 [I-N-187, 2-amino-6-fluoro-N-(5-fluoro-4-(4-(2-(pyrrolidin-1-yl)acetyl)piperazin-1-yl)pyridin-3-yl)pyrazolo[1,5-a]pyrimidine-3-carboxamide] | 0.01 to 1 µM |
| Nc1nn2cc(Cl)cnc2c1C(=O)Nc1cnccc1N1CCNC(C(F)(F)F)C1 (stereo not shown) [I-N-70, 2-amino-6-chloro-N-(4-(3-(trifluoromethyl)piperazin-1-yl)pyridin-3-yl)pyrazolo[1,5-a]pyrimidine-3-carboxamide] | 0.01 to 1 µM |
| Nc1nn2cc(F)cnc2c1C(=O)Nc1cnccc1N1CC(=O)N2CCCC2C1 (stereo not shown) [I-N-222, 2-amino-6-fluoro-N-(4-(4-oxohexahydropyrrolo[1,2-a]pyrazin-2(1H)-yl)pyridin-3-yl)pyrazolo[1,5-a]pyrimidine-3-carboxamide] | 0.01 to 1 µM |
| Nc1nn2cc(F)cnc2c1C(=O)Nc1cncc(F)c1N1CCC(C(=O)N2CCC(N3CCCCC3)CC2)CC1 [I-G-60, N-(4-(4-([1,4′-bipiperidine]-1′-carbonyl)piperidin-1-yl)-5-fluoropyridin-3-yl)-2-amino-6-fluoropyrazolo[1,5-a]pyrimidine-3-carboxamide] | 0.01 to 1 µM |
| Nc1nn2cc(F)cnc2c1C(=O)Nc1cncc(F)c1N1CCN(C(=O)C2CC2)CC1 [I-N-276, 2-amino-N-(4-(4-(cyclopropanecarbonyl)piperazin-1-yl)-5-fluoropyridin-3-yl)-6-fluoropyrazolo[1,5-a]pyrimidine-3-carboxamide] | 0.01 to 1 µM |
| CN1CCN2CCN(c3ccncc3NC(=O)c3c(N)nn4cc(Cl)cnc34)CC2C1 (stereo not shown) [I-N-61, 2-amino-6-chloro-N-(4-(8-methylhexahydro-1H-pyrazino[1,2-a]pyrazin-2(6H)-yl)pyridin-3-yl)pyrazolo[1,5-a]pyrimidine-3-carboxamide] | 0.01 to 1 µM |
| Nc1nn2cc(F)cnc2c1C(=O)Nc1cnccc1N1CCN2C(=O)CC[C@@H]2C1 [I-N-258, (R)-2-amino-6-fluoro-N-(4-(6-oxohexahydropyrrolo[1,2-a]pyrazin-2(1H)-yl)pyridin-3-yl)pyrazolo[1,5-a]pyrimidine-3-carboxamide] | 0.01 to 1 µM |
| Nc1nn2cc(Cl)cnc2c1C(=O)Nc1cnccc1N1CCC(N2CCCC2)CC1 [I-N-105, 2-amino-6-chloro-N-(4-(4-(pyrrolidin-1-yl)piperidin-1-yl)pyridin-3-yl)pyrazolo[1,5-a]pyrimidine-3-carboxamide] | 0.01 to 1 µM |
| COCCN1CCN(c2c(F)cncc2NC(=O)c2c(N)nn3cc(F)cnc23)CC1 [I-N-127, 2-amino-6-fluoro-N-(5-fluoro-4-(4-(2-methoxyethyl)piperazin-1-yl)pyridin-3-yl)pyrazolo[1,5-a]pyrimidine-3-carboxamide] | 0.01 to 1 µM |
| CCN1CCN(c2ccncc2NC(=O)c2c(N)nn3cc(Cl)cnc23)CC1 [I-N-51, 2-amino-6-chloro-N-(4-(4-ethylpiperazin-1-yl)pyridin-3-yl)pyrazolo[1,5-a]pyrimidine-3-carboxamide] | 0.01 to 1 µM |
| Nc1nn2cc(F)cnc2c1C(=O)Nc1cnccc1-c1ccc(C(=O)N2CCN3CCC2CC3)cc1 [I-C-48, N-(4-(4-(1,4-diazabicyclo[3.2.2]nonane-4-carbonyl)phenyl)pyridin-3-yl)-2-amino-6-fluoropyrazolo[1,5-a]pyrimidine-3-carboxamide] | 0.01 to 1 µM |
| Nc1nn2cc(F)cnc2c1C(=O)Nc1cncc(F)c1N1CCN2C(=O)OC[C@@H]2C1 [I-N-248, (S)-2-amino-6-fluoro-N-(5-fluoro-4-(3-oxotetrahydro-1H-oxazolo[3,4-a]pyrazin-7(3H)-yl)pyridin-3-yl)pyrazolo[1,5-a]pyrimidine-3-carboxamide] | 0.01 to 1 µM |
| COC1(CN(C)C)CCN(c2ccncc2NC(=O)c2c(N)nn3cc(Cl)cnc23)CC1 [I-N-46, 2-amino-6-chloro-N-(4-(4-((dimethylamino)methyl)-4-methoxypiperidin-1-yl)pyridin-3-yl)pyrazolo[1,5-a]pyrimidine-3-carboxamide] | 0.01 to 1 µM |
| Nc1nn2cc(F)cnc2c1C(=O)Nc1cncc(F)c1N1CCN2CCOC[C@H]2C1 [I-N-135, (R)-2-amino-6-fluoro-N-(5-fluoro-4-(hexahydropyrazino[2,1-c][1,4]oxazin-8(1H)-yl)pyridin-3-yl)pyrazolo[1,5-a]pyrimidine-3-carboxamide] | 0.01 to 1 µM |
| Nc1nn2cc(F)cnc2c1C(=O)Nc1cnccc1N1CCC(C(=O)N2CC3(CCO3)C2)CC1 [I-G-90, N-(4-(4-(1-oxa-6-azaspiro[3.3]heptane-6-carbonyl)piperidin-1-yl)pyridin-3-yl)-2-amino-6-fluoropyrazolo[1,5-a]pyrimidine-3-carboxamide] | 0.01 to 1 µM |
| Nc1nn2cc(F)cnc2c1C(=O)Nc1cnccc1N1CCN(S(=O)(=O)C2CC2)CC1 [I-N-176, 2-amino-N-(4-(4-(cyclopropylsulfonyl)piperazin-1-yl)pyridin-3-yl)-6-fluoropyrazolo[1,5-a]pyrimidine-3-carboxamide] | 0.01 to 1 µM |

| Compound | Ki |
| --- | --- |
| Nc1nn2cc(Cl)cnc2c1C(=O)Nc1cnccc1N1CCN2CCC[C@H]2C1 [I-N-71, (S)-2-amino-6-chloro-N-(4-(hexahydropyrrolo[1,2-a]pyrazin-2(1H)-yl)pyridin-3-yl)pyrazolo[1,5-a]pyrimidine-3-carboxamide] | 0.01 to 1 µM |
| Cc1cncnc1-c1ccncc1NC(=O)c1c(N)nn2cc(F)cnc12 [I-C-67, 2-amino-6-fluoro-N-(4-(5-methylpyrimidin-4-yl)pyridin-3-yl)pyrazolo[1,5-a]pyrimidine-3-carboxamide] | 0.01 to 1 µM |
| Nc1nn2cc(Cl)cnc2c1C(=O)Nc1cnccc1Oc1cccnc1 [I-O-70, 2-amino-6-chloro-N-(4-(pyridin-3-yloxy)pyridin-3-yl)pyrazolo[1,5-a]pyrimidine-3-carboxamide] | 0.01 to 1 µM |
| N#CCc1cnc2c(C(=O)Nc3cnccc3OCCN)c(N)nn2c1 [I-O-83, 2-amino-N-(4-(2-aminoethoxy)pyridin-3-yl)-6-(cyanomethyl)pyrazolo[1,5-a]pyrimidine-3-carboxamide] | < 0.01 µM |
| N#CCc1cnc2c(C(=O)Nc3cnccc3-c3ccccc3)c(N)nn2c1 [I-C-6, 2-amino-6-(cyanomethyl)-N-(4-phenylpyridin-3-yl)pyrazolo[1,5-a]pyrimidine-3-carboxamide] | 0.01 to 1 µM |
| CN1CCN(c2ccncc2NC(=O)c2c(N)nn3cc(F)cnc23)CC1 [I-N-3, 2-amino-6-fluoro-N-(4-(4-methylpiperazin-1-yl)pyridin-3-yl)pyrazolo[1,5-a]pyrimidine-3-carboxamide] | 0.01 to 1 µM |
| Cc1cncn1-c1ccncc1NC(=O)c1c(N)nn2cc(F)cnc12 [I-N-283, 2-amino-6-fluoro-N-(4-(5-methyl-1H-imidazol-1-yl)pyridin-3-yl)pyrazolo[1,5-a]pyrimidine-3-carboxamide] | 0.01 to 1 µM |
| CO[C@@H]1CCN(C(=O)C2CCN(c3ccncc3NC(=O)c3c(N)nn4cc(F)cnc34)CC2)C1 [I-G-93, (R)-2-amino-6-fluoro-N-(4-(4-(3-methoxypyrrolidine-1-carbonyl)piperidin-1-yl)pyridin-3-yl)pyrazolo[1,5-a]pyrimidine-3-carboxamide] | 0.01 to 1 µM |
| N#CCc1cnc2c(C(=O)Nc3cnccc3OCC3CC3)c(N)nn2c1 [I-O-32, 2-amino-6-(cyanomethyl)-N-(4-(cyclopropylmethoxy)pyridin-3-yl)pyrazolo[1,5-a]pyrimidine-3-carboxamide] | < 0.01 µM |
| Cc1cncc(NC(=O)c2c(N)nn3cc(F)cnc23)c1N1CCN(C2CCOCC2)CC1 [I-N-123, 2-amino-6-fluoro-N-(5-methyl-4-(4-(tetrahydro-2H-pyran-4-yl)piperazin-1-yl)pyridin-3-yl)pyrazolo[1,5-a]pyrimidine-3-carboxamide] | 0.01 to 1 µM |
| Nc1nn2cc(F)cnc2c1C(=O)Nc1cncc(F)c1N1CCN(C(=O)C2CC3CCCCN3C2)CC1 (stereo not shown) [I-N-203, 2-amino-6-fluoro-N-(5-fluoro-4-(4-(octahydroindolizine-2-carbonyl)piperazin-1-yl)pyridin-3-yl)pyrazolo[1,5-a]pyrimidine-3-carboxamide] | 0.01 to 1 µM |
| Nc1nn2cc(F)cnc2c1C(=O)Nc1cncc(F)c1N1CCN(S(=O)(=O)C2COC2)CC1 [I-N-201] | 0.01 to 1 µM |
| CN1CC[C@H](Oc2ccncc2NC(=O)c2c(N)nn3cc(Cl)cnc23)C1 [I-O-69, (S)-2-amino-6-chloro-N-(4-((1-methylpyrrolidin-3-yl)oxy)pyridin-3-yl)pyrazolo[1,5-a]pyrimidine-3-carboxamide] | 0.01 to 1 µM |
| Nc1nn2cc(Cl)cnc2c1C(=O)Nc1cnccc1C1CCN(C2COC2)CC1 [I-C-11, 2-amino-6-chloro-N-(4-(1-(oxetan-3-yl)piperidin-4-yl)pyridin-3-yl)pyrazolo[1,5-a]pyrimidine-3-carboxamide] | 0.01 to 1 µM |
| Nc1nn2cc(F)cnc2c1C(=O)Nc1cncc(F)c1N1CCC(C(=O)N2CCC2)CC1 [I-G-8, 2-amino-N-(4-(4-(azetidine-1-carbonyl)piperidin-1-yl)-5-fluoropyridin-3-yl)-6-fluoropyrazolo[1,5-a]pyrimidine-3-carboxamide] | 0.01 to 1 µM |
